Source: patent US6737383B1, “Herbicidal oxadiazolidines” (priority 1999, dated 2004)

Key:
crabgrass = assay: Test B pre/postemergence crabgrass; format: in vivo, Digitaria sanguinalis
Outline: (§1)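 Test chemicals in a non-phytotoxic solvent mixture with surfactant were sprayed preemergence onto planted seeds and postemergence onto plants 2 to 18 cm tall (1- to 4-leaf stage). After twelve to sixteen days in a greenhouse, injury was visually rated against untreated controls from 0 (no effect) to 10 (complete control).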

surinam grass = assay: Test B pre/postemergence surinam grass; format: in vivo, Brachiaria decumbens
Outline: as §1

wheat = assay: Test B pre/postemergence wheat; format: in vivo, Triticum aestivum
Outline: as §1

morningglory = assay: Test B pre/postemergence morningglory; format: in vivo, Ipomoea hederacea
Outline: as §1

giant foxtail = assay: Test B pre/postemergence giant foxtail; format: in vivo, Setaria faberii
Outline: as §1

bamyardgrass = assay: Test B flood test barnyardgrass; format: in vivo, Echinochloa crus-galli
Outline: (§2)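 Each value is a visual injury score relative to controls, with 10 meaning complete control and 0 no effect. Evaluation took place twelve to sixteen days after the 2-leaf-stage plants were treated and kept in the greenhouse.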

corn = assay: Test B pre/postemergence corn; format: in vivo, Zea mays
Outline: as §1

pigweed = assay: Test B pre/postemergence pigweed; format: in vivo, Amaranthus retroflexus
Outline: as §1

rice = assay: Test B flood test rice; format: in vivo, Oryza sativa
Outline: as §2

velvetleaf = assay: Test B pre/postemergence velvetleaf; format: in vivo, Abutilon theophrasti
Outline: as §1

smallflower flatsedge = assay: Test B flood test smallflower flatsedge; format: in vivo, Cyperus difformis
Outline: as §2

wild oat = assay: Test B pre/postemergence wild oat; format: in vivo, Avena fatua
Outline: as §1

blackgrass = assay: Test B pre/postemergence blackgrass; format: in vivo, Alopecurus myosuroides
Outline: as §1

bedstraw = assay: Test B pre/postemergence bedstraw; format: in vivo, Galium aparine
Outline: as §1

soybean = assay: Test B pre/postemergence soybean; format: in vivo, Glycine max
Outline: as §1

cocklebur = assay: Test B pre/postemergence cocklebur; format: in vivo, Xanthium strumarium
Outline: as §1

[1] = Postemergence, Rate 125 g/ha, scale 0 to 10, 0 is no effect, 10 is complete control
[2] = Preemergence, Rate 62 g/ha, scale of 0 to 10 where 0 is no effect and 10 is complete control
[3] = Preemergence, Rate 250 g/ha, scale of 0 to 10 where 0 is no effect and 10 is complete control
[4] = Preemergence, Rate 500 g/ha, scale of 0 to 10 where 0 is no effect and 10 is complete control
[5] = Rate 62 g/ha, Postemergence, scale 0 to 10 (0 no effect, 10 complete control)
[6] = Rate 500 g/ha, Postemergence, scale 0 to 10, 0 no effect, 10 complete control
[7] = Rate 250 g/ha, Postemergence, scale of 0 to 10 where 0 is no effect and 10 is complete control
[8] = Rate 62 g/ha, headed Pre-emergence (flood test species), scale 0 to 10 (0 no effect, 10 complete control)
[9] = Rate 125 g/ha, Pre-emergence, flood test species, scale 0 to 10 where 0 is no effect and 10 is complete control
[10] = Rate 250 g/ha, Pre-emergence, flood-test species, scale 0 to 10, 0 is no effect, 10 is complete control
[11] = Rate 500 g/ha, Pre-emergence, flood test species, scale 0 to 10 (0 no effect, 10 complete control)

Cc1c(-n2c(=O)on(C(=O)N(c3ccc(Cl)cc3)C(C)C)c2=O)ccc2ccccc12 [Compound 336]
Plant response rating, Crabgrass (crabgrass; [1]): 0
Crabgrass plant response rating (crabgrass; [2]): 0
Crabgrass plant response rating (0 to 10 scale) (crabgrass; Preemergence, Rate 125 g/ha): 0
Crabgrass plant response rating (crabgrass; [3]): 0
Crabgrass plant response rating (crabgrass; [4]): 0
Crabgrass plant response rating (crabgrass; [5]): 0
Plant response rating, Crabgrass (crabgrass; [6]): 0
Plant response rating, B. signalgrass (surinam grass; [1]): 0
B. signalgrass plant response rating (surinam grass; [2]): 0
B. signalgrass plant response rating (0 to 10 scale, 0 is no effect, 10 is complete control) (surinam grass; Preemergence, Rate 125 g/ha): 0
B. signalgrass plant response rating (surinam grass; [3]): 0
B. signalgrass plant response rating (surinam grass; [4]): 0
B. signalgrass plant response rating (surinam grass; [5]): 0
Plant response rating, B. signalgrass (surinam grass; [7]): 0
Plant response rating, B. signalgrass (surinam grass; [6]): 0
Plant response rating, Wheat (wheat; [1]): 0
Wheat plant response rating (wheat; [2]): 0
Wheat plant response rating (0 to 10 scale) (wheat; Preemergence, Rate 125 g/ha): 0
Wheat plant response rating (wheat; [3]): 0
Wheat plant response rating (wheat; [4]): 0
Wheat plant response rating (wheat; [5]): 0
Plant response rating, Wheat (wheat; [6]): 0
Plant response rating, Morningglory (morningglory; [1]): 0
Morningglory plant response rating (morningglory; [2]): 0
Morningglory plant response rating (0 to 10 scale) (morningglory; Preemergence, Rate 125 g/ha): 0
Morningglory plant response rating (morningglory; [3]): 0
Morningglory plant response rating (morningglory; [4]): 0
Morningglory plant response rating (morningglory; [5]): 0
Plant response rating, Morningglory (morningglory; [6]): 0
Plant response rating, Giant foxtail (giant foxtail; [1]): 0
Giant foxtail plant response rating (giant foxtail; [2]): 0
Giant foxtail plant response rating (0 to 10 scale) (giant foxtail; Preemergence, Rate 125 g/ha): 0
Giant foxtail plant response rating (giant foxtail; [3]): 0
Giant foxtail plant response rating (giant foxtail; [4]): 0
Giant foxtail plant response rating (giant foxtail; [5]): 0
Plant response rating, Giant foxtail (giant foxtail; [6]): 0
Barnyardgrass plant response rating (bamyardgrass; [8]): 0
Barnyardgrass plant response rating (bamyardgrass; [9]): 0
Barnyardgrass plant response rating (bamyardgrass; [10]): 0
Barnyardgrass plant response rating (bamyardgrass; [11]): 0
Plant response rating, Corn (corn; [1]): 0
Corn plant response rating (corn; [2]): 0
Corn plant response rating (0 to 10 scale) (corn; Preemergence, Rate 125 g/ha): 0
Corn plant response rating (corn; [3]): 0
Corn plant response rating (corn; [4]): 0
Corn plant response rating (corn; [5]): 0
Plant response rating, Corn (corn; [6]): 0
Plant response rating, Redroot pigweed (pigweed; [1]): 0
Redroot pigweed plant response rating (pigweed; [2]): 0
Redroot pigweed plant response rating (0 to 10 scale) (pigweed; Preemergence, Rate 125 g/ha): 0
Redroot pigweed plant response rating (pigweed; [3]): 0
Redroot pigweed plant response rating (pigweed; [4]): 0
Redroot pigweed plant response rating (pigweed; [5]): 0
Plant response rating, Redroot pigweed (pigweed; [6]): 0
Rice plant response rating (rice; [8]): 0
Rice plant response rating (rice; [9]): 0
Rice plant response rating (rice; [10]): 0
Rice plant response rating (rice; [11]): 0
Plant response rating, Velvetleaf (velvetleaf; [1]): 0
Velvetleaf plant response rating (velvetleaf; [2]): 0
Velvetleaf plant response rating (0 to 10 scale) (velvetleaf; Preemergence, Rate 125 g/ha): 0
Velvetleaf plant response rating (velvetleaf; [3]): 0
Velvetleaf plant response rating (velvetleaf; [4]): 0
Velvetleaf plant response rating (velvetleaf; [5]): 0
Plant response rating, Velvetleaf (velvetleaf; [6]): 0
S. Flatsedge plant response rating (smallflower flatsedge; [8]): 0
S. Flatsedge plant response rating (smallflower flatsedge; [9]): 0
S. Flatsedge plant response rating (smallflower flatsedge; [10]): 0
S. Flatsedge plant response rating (smallflower flatsedge; [11]): 0
Plant response rating, Wild oats (wild oat; [1]): 0
Wild oats plant response rating (wild oat; [2]): 0
Wild oats plant response rating (0 to 10 scale) (wild oat; Preemergence, Rate 125 g/ha): 0
Wild oats plant response rating (wild oat; [3]): 0
Wild oats plant response rating (wild oat; [4]): 0
Wild oats plant response rating (wild oat; [5]): 0
Plant response rating, Wild oats (wild oat; [6]): 0
Plant response rating, Blackgrass (blackgrass; [1]): 0
Blackgrass plant response rating (blackgrass; [2]): 0
Blackgrass plant response rating (0 to 10 scale) (blackgrass; Preemergence, Rate 125 g/ha): 0
Blackgrass plant response rating (blackgrass; [3]): 0
Blackgrass plant response rating (blackgrass; [4]): 0
Blackgrass plant response rating (blackgrass; [5]): 0
Plant response rating, Blackgrass (blackgrass; [7]): 0
Plant response rating, Blackgrass (blackgrass; [6]): 0
Plant response rating, Bedstraw (bedstraw; [1]): 0
Bedstraw plant response rating (bedstraw; [2]): 0
Bedstraw plant response rating (0 to 10 scale) (bedstraw; Preemergence, Rate 125 g/ha): 0
Bedstraw plant response rating (bedstraw; [3]): 0
Bedstraw plant response rating (bedstraw; [4]): 0
Bedstraw plant response rating (bedstraw; [5]): 0
Plant response rating, Bedstraw (bedstraw; [7]): 0
Plant response rating, Bedstraw (bedstraw; [6]): 0
Plant response rating, Soybean (soybean; [1]): 1
Soybean plant response rating (soybean; [2]): 0
Soybean plant response rating (0 to 10 scale) (soybean; Preemergence, Rate 125 g/ha): 0
Soybean plant response rating (soybean; [3]): 0
Soybean plant response rating (soybean; [4]): 0
Soybean plant response rating (soybean; [5]): 1
Plant response rating, Soybean (soybean; [6]): 2
Plant response rating, Cocklebur (cocklebur; [1]): 0
Cocklebur plant response rating (cocklebur; [2]): 0
Cocklebur plant response rating (0 to 10 scale) (cocklebur; Preemergence, Rate 125 g/ha): 0
Cocklebur plant response rating (cocklebur; [3]): 0
Cocklebur plant response rating (cocklebur; [4]): 0
Cocklebur plant response rating (cocklebur; [5]): 0
Plant response rating, Cocklebur (cocklebur; [6]): 0
